In general, inhibition in vivo refers to the relative decrease from the control value, in per cent.

Active and inactive are the calls of the source. The calls are words filed in the database; no cut-off is given here.

For assay [1], the system named is Mus musculus. As to the kind of experiment: Antinociceptive effect in Kunming mouse assessed as inhibition of acetic acid-induced writhing response at 100 mg/kg, ip administered 30 mins prior to acetic acid challenge measured 5 mins post injection for 15 mins. In kind it is functional. A general note: In writhing tests, fewer writhes than in controls are read as antinociception.

In assay [2] the test system is Mus musculus. As to the kind of experiment: Antinociceptive effect in Kunming mouse assessed as inhibition of acetic acid-induced writhing response at 100 mg/kg, sc administered 30 mins prior to acetic acid challenge measured 5 mins post injection for 15 mins. The format is functional.
The subject of assay [3] is Mus musculus. As to the kind of experiment: Antinociceptive effect in Kunming mouse assessed as inhibition of acetic acid-induced writhing response at 20 mg/kg, sc administered 30 mins prior to acetic acid challenge measured 5 mins post injection for 15 mins. The format is functional.
The subject of assay [4] is Mus musculus. As to the kind of experiment: Antinociceptive effect in C57BL/6 mouse assessed as inhibition of spared nerve injury-induced neuropathic pain response at 100 mg/kg, ip measured after 5 to 7 days of recovery by Von Frey filament assay. In kind it is functional, organism-based.
Assay [5] concerns Mus musculus. As to the kind of experiment: Antinociceptive activity in ICR mouse assessed as reduction in licking and biting time during second phase at 10 mg/kg, ip administered 10 mins prior to formalin challenge measured for 10 to 30 mins (reference value: 159 +/- 15 s). The format is functional.
Assay [6] has as its system Mus musculus. As to the kind of experiment: Antinociceptive effect in C57BL/6 mouse assessed as inhibition of spared nerve injury-induced neuropathic pain response at 10 to 40 mg/kg, ip measured after 5 to 7 days of recovery by Von Frey filament assay. The format is functional, organism-based.
In assay [7] the test system is Mus musculus. As to the kind of experiment: Antinociceptive effect in Kunming mouse assessed as inhibition of acetic acid-induced writhing response at 20 mg/kg, ip administered 30 mins prior to acetic acid challenge measured 5 mins post injection for 15 mins. The format is functional.
Assay [8] concerns Mus musculus. As to the kind of experiment: Antinociceptive activity in ICR mouse assessed as reduction in licking and biting time during first phase at 10 mg/kg, ip administered 10 mins prior to formalin challenge measured for 10 mins (reference value: 156 +/- 8 s). The format is functional.
In assay [9] the test system is Mus musculus. As to the kind of experiment: Antinociceptive activity in ip dosed ICR mouse assessed as reduction in licking and biting time during second phase administered 10 mins prior to formalin challenge measured for 10 to 30 mins relative to vehicle control. In kind it is functional, organism-based.
The subject of assay [10] is Mus musculus. As to the kind of experiment: Antinociceptive activity in ICR mouse assessed as reduction in licking and biting time during second phase at 10 mg/kg, ip administered 10 mins prior to formalin challenge measured for 10 to 30 mins (reference value: 159 +/- 25 s). The format is functional.
The subject of assay [11] is Mus musculus. As to the kind of experiment: Antinociceptive effect in C57BL/6 mouse assessed as inhibition of spared nerve injury-induced neuropathic pain response at 10 to 20 mg/kg, ip measured after 5 to 7 days of recovery by Von Frey filament assay. In kind it is functional, organism-based.
For assay [12], the system named is Mus musculus. As to the kind of experiment: Antinociceptive activity in ICR mouse assessed as reduction in licking and biting time during first phase at 20 mg/kg, ip administered 10 mins prior to formalin challenge measured for 10 mins (reference value: 156 +/- 8 s). The format is functional.
The test system of assay [13] is Mus musculus. As to the kind of experiment: Antinociceptive activity in ICR mouse assessed as reduction in licking and biting time during second phase at 20 mg/kg, ip administered 10 mins prior to formalin challenge measured for 10 to 30 mins (reference value: 159 +/- 25 s). The format is functional.
Assay [14] has as its system Mus musculus. As to the kind of experiment: Antinociceptive activity in ip dosed ICR mouse assessed as reduction in licking and biting time during first phase administered 10 mins prior to formalin challenge measured for 10 mins relative to vehicle control. In kind it is functional, organism-based.
The test system of assay [15] is Mus musculus. As to the kind of experiment: Antinociceptive activity in ICR mouse assessed as reduction in licking and biting time during second phase at 10 mg/kg, ip administered 10 mins prior to formalin challenge measured for 10 to 30 mins (reference value: 178 +/- 19 s). The format is functional.

Take `CC(=O)Oc1ccccc1C(=O)O` [ASPIRIN DL-LYSINE]: the inhibition in vivo at 100 mg/kg was determined as 85.4% with Mus musculus [1] and 81.9% with Mus musculus [2].
Take `COc1cc([C@H]2[C@H](C(=O)O[C@@H]3C[C@@H]4[C@@H](CN(C)C[C@H]4C)[C@@H]3C)[C@H](c3ccc(O)c(OC)c3)[C@H]2C(=O)O[C@@H]2C[C@@H]3[C@@H](CN(C)C[C@H]3C)[C@@H]2C)ccc1O`: the inhibition in vivo at 20 mg/kg in the assay on Mus musculus [3] came to 65.1%.
On the same count and under the same terms, next, `COc1cc([C@H]2[C@H](C(=O)OCCC3CCN(C)CC3)[C@H](c3ccc(O)c(OC)c3)[C@H]2C(=O)OCCC2CCN(C)CC2)ccc1O`: 22.4%; `CCCN1C[C@H]2[C@H](C)[C@H](OC(=O)[C@H]3[C@H](c4ccc(O)c(OC)c4)[C@H](C(=O)O[C@@H]4C[C@@H]5[C@@H](CN(CCC)C[C@@H]5C)[C@@H]4C)[C@H]3c3ccc(O)c(OC)c3)C[C@H]2[C@@H](C)C1`: 48.2%; `CCCCN1C[C@H]2[C@H](C)[C@H](OC(=O)[C@H]3[C@H](c4ccc(O)c(OC)c4)[C@H](C(=O)O[C@@H]4C[C@@H]5[C@@H](CN(CCCC)C[C@@H]5C)[C@@H]4C)[C@H]3c3ccc(O)c(OC)c3)C[C@H]2[C@@H](C)C1`: 13.1%.
As to `NCC1(CC(=O)O)CCCCC1`, the inhibition entry with Mus musculus [4] was “Active”.
As to `COc1cc([C@H]2[C@H](C(=O)OCC3CCN(C)CC3)[C@H](c3ccc(O)c(OC)c3)[C@H]2C(=O)OCC2CCN(C)CC2)ccc1O`, the Time with Mus musculus [5] was 95 s. In the assay with Mus musculus [3], the inhibition in vivo at 20 mg/kg was 75.7%. Besides, the inhibition entry in the assay with Mus musculus [6] is “Active”.
On to `COc1cc([C@H]2[C@H](C(=O)O[C@@H]3C[C@@H]4[C@@H](CN(CC5CC5)C[C@@H]4C)[C@@H]3C)[C@H](c3ccc(O)c(OC)c3)[C@H]2C(=O)O[C@@H]2C[C@@H]3[C@@H](CN(CC4CC4)C[C@@H]3C)[C@@H]2C)ccc1O`, for which the inhibition in vivo at 20 mg/kg in the assay with Mus musculus [7] worked out at 88.1%.
With `COc1cc([C@H]2[C@H](C(=O)O[C@@H]3C[C@@H]4[C@@H](CN(C)C[C@@H]4C)[C@@H]3C)[C@H](c3ccc(O)c(OC)c3)[C@H]2C(=O)O[C@@H]2C[C@@H]3[C@@H](CN(C)C[C@@H]3C)[C@@H]2C)ccc1O` [INCARVILLATEINE], the Time was found to be 101 s in the assay with Mus musculus [8], 67 s in the assay on Mus musculus [10], 51 s with Mus musculus [12] and 1 s in the assay on Mus musculus [13]. For the same molecule, the inhibition in vivo at 20 mg/kg in the assay with Mus musculus [7] stood at 78.5%; in the assay with Mus musculus [3], 69.2%. In addition, the Activity entry in the assay with Mus musculus [9] and in the assay on Mus musculus [14] was “Dose-dependent effect” in each case. Moreover, the inhibition entry in the assay with Mus musculus [11] was “Active”.
Consider `C=C1CN(C)C[C@H]2[C@H](C)[C@H](OC(=O)[C@H]3[C@H](c4ccc(O)c(OC)c4)[C@H](C(=O)O[C@@H]4C[C@H]5C(=C)CN(C)C[C@H]5[C@@H]4C)[C@H]3c3ccc(O)c(OC)c3)C[C@@H]12`, for which the inhibition in vivo at 20 mg/kg with Mus musculus [7] is 89.4%; with Mus musculus [3] it was 77.8%. For the same molecule, in the assay with Mus musculus [15], the Time is 87 s. In addition, in the assay with Mus musculus [6], the inhibition entry was “Active”.
Regarding `COc1cc([C@H]2[C@H](C(=O)OC3CCN(C)CC3)[C@H](c3ccc(O)c(OC)c3)[C@H]2C(=O)OC2CCN(C)CC2)ccc1O`, the inhibition in vivo at 20 mg/kg in the assay with Mus musculus [3] turned out to be 41.2%.
Still for that read-out and setting: next, `C=CCN1C[C@H]2[C@H](C)[C@H](OC(=O)[C@H]3[C@H](c4ccc(O)c(OC)c4)[C@H](C(=O)O[C@@H]4C[C@@H]5[C@@H](CN(CC=C)C[C@@H]5C)[C@@H]4C)[C@H]3c3ccc(O)c(OC)c3)C[C@H]2[C@@H](C)C1`: 70.6%.

The record behind these values is ChEMBL document CHEMBL3808282, “Gram Scale Syntheses of (-)-Incarvillateine and Its Analogs. Discovery of Potent Analgesics for Neuropathic Pain” (2016).
